Experiments:
HEK293T cells = experiment: Live cell fluorescence imaging and flow cytometry of DPP-2 and DPP-3 in HEK293T cells; type: cell-based, human; details: 1 μM DPP-2 for 15 min, microscopy or flow cytometry
Experimental: HEK293T (650,000 cells per dish) cells were plated with 1.5 mL of Dulbecco's Modified Eagle Medium (DMEM) (High Glucose, 10% fetal bovine serum (FBS)) in a 35 mm glass bottom dish (D35-10-1.5-N; Cellvis, Mountain View, Calif., United States of America) 24 hrs prior to imaging. 30 min before the addition of the DPP probe, the cell culture media was removed and cells were washed with 1 mL of Delbecco's phosphate-buffered saline (DPBS). The media was then replaced with 1 mL of DMEM containing 1 μM Hoechst 33342 and either 0.1% DMSO carrier as a control, 1 or 2 μM Palm B, 0.1, 1.0, or 5 μM ML348, and incubated for 30 min at 37° C. and 5% CO2. The media was removed, the cells were washed with 1 mL of Live Cell Imaging Solution (Thermo Fisher Scientific, Waltham, Mass., United States of America), and 1 mL of 1 μM DPP-2 or DPP-3 in Live Cell Imaging Solution was added to each plate. For ML348 0.1, 1.0, or 5 μM was added along with DPP-2 or DPP-3. After incubation for 15 min at 37° C. and 5% CO2, images were obtained on an inverted epi-fluorescence microscope (Olympus IX83; Olympus Corporation, Tokyo, Japan) attached with EMCCD camera (Photometrics EVOLVE™ Delta; Photometrics, Tucson, Ariz., United States of America) with 40× oil objective (N/A 1.3) for DPP-2 (excitation filter 500/20, dichroic chroma 89007, emission filter 535/30, exposure time 200 ms, EM gain 25), Hoechst 33342: (excitation filter 402/15, emission filter 455/50, dichroic chroma 89013, exposure time 30 ms, EM gain 25), and brightfield (exposure time 5 ms, EM gain 5), and for DPP-3 (exposure time 500 ms, EM gain 150), Hoechst 33342: (exposure time 30 ms, EM gain 25), and brightfield (exposure time 20 ms, EM gain 5). Analyses were performed in ImageJ. For data analysis, the average fluorescence intensity per image in each experimental condition was obtained by selecting regions of interest (ROIs) in the brightfield image. For display, the data were normalized to the average fluorescence intensity of the control conditions. Each experiment was repeated at least three separate times with identical results.
Cells were plated on a 10 cm dish with 10 mL of DMEM/High Glucose (10% FBS, 1% P/S, L-Glutamine, Sodium pyruvate) 36-48 hours prior to the day of experiment and maintained at 37° C., 5% CO2 so as to obtain 80-90% confluency. Cells were washed with DPBS and trypsinized with 1 mL 0.05% Trypsin. 5 mL of DMEM/High Glucose (10% FBS, L-Glutamine, Sodium pyruvate) was added and cells were spun down at 1200 rpm for 3 min. Media was discarded and cells were resuspended in 5 mL of Live Cell Imaging Solution and again spun down at 1200 rpm for 3 min. The cells pellets obtained were resuspended in 3-5 mL of Live Cell Imaging Solution and divided into 500 μL aliquots. The aliquots were treated with either 0.2% DMSO carrier or 1 μM of PalmB/ML348 or 1 μM/5 μM of ML349 inhibitor. After 30 min of incubation at room temperature, 1 μL of 2.5 mM DPP-3 in DMSO was added to each aliquot for a final concentration of 5 μM, and the solutions were mixed. After 5 min incubation at room temperature, fluorescence signal in FITC channel was measured for 10000 cells (5000 for HeLa experiments) on a LSR-Fortessa 4-15 HTS (BD digital instrument, 488 nm laser with 530/30 nm filter for FITC; BD, Franklin Lakes, N.J., United States of America). For analyzing DPP2 in HEK293T cells, the aliquots were treated with either 0.2% DMSO carrier or 2 μM of PalmB, 5 or 20 μM of ML348/ML349 and then analyzed by the protocol as mentioned above. Data was analyzed by FlowJo software version 10.0.8. For comparison of A431 starved versus non-starved, parallel 10 cm dishes of A431 cells were plated in 10 mL of DMEM (high glucose, 10% FBS, 1% P/S), and grown for 36 h. The growth media was removed, and replaced by 10 mL of either DMEM (High glucose) with 10% FBS to maintain “growth” conditions, or DMEM (High glucose) without FBS respectively for “starvation” conditions, and incubated for 14 h. […]

[1] = Water solubility of probes (stated in words); type: physicochemical
APT1 = biological target: T1, APT1 (Homo sapiens, UniProt O75608); experiment: In vitro kinetic assay and emission spectra of DPP-1, DPP-2, DPP-3 with purified APT1 (with detergent); type: biochemical
T1 construct: His-tag; made in house; host or cells: E. coli ROSETTA DE3
T1 sequence (O75608 whole entry): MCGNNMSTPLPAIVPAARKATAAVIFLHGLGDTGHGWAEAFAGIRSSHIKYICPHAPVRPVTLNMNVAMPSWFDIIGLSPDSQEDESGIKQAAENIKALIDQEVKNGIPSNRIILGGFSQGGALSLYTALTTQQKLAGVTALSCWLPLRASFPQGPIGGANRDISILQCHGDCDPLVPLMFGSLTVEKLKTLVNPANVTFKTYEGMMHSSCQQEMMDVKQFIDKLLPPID
Experimental: 50 μL of 7.5 μM DPP1-3 in HEPES (20 mM, pH=7.4, 150 mM NaCl, 0.1% Triton X-100) were added to a 384-well black flat bottom plate (Corning Life Sciences, Corning, N.Y., United States of America) and placed in an Infinite M200 Pro (Tecan, Mannedorf, Switzerland) plate reader at 37° C. for 5 min to warm. 25 μL of either 4-(2-hydroxyethyl)-1-piperazineethanesulfonic acid (HEPES) buffer alone or HEPES buffer containing 150 nM APT1 or APT2, was added using a multi-channel pipette, resulting in a final concentration of 5 μM DPP1-3 and 50 nM APT1 or APT2. Fluorescence intensities (λex 490/9 nm, λem 545/20 nm, Gain 70, No. of flashes 25, Integration time 100 μs and Z-position 20000 μm) were measured at 30 second (s) time intervals for 20 min. At the end of 20 min kinetic run, emission spectra were obtained (λex 485 nm, Aem510-700 nm, Gain 100, No. of flashes 25, Integration time 100 μs and Z-position 20,000 μm).

HeLa cells = experiment: Flow cytometry of DPP-3 in HeLa cells; type: cell-based, human; details: 5 μM DPP-3, 5 min, flow cytometry
Experimental: (§1) Cells were plated on a 10 cm dish with 10 mL of DMEM/High Glucose (10% FBS, 1% P/S, L-Glutamine, Sodium pyruvate) 36-48 hours prior to the day of experiment and maintained at 37° C., 5% CO2 so as to obtain 80-90% confluency. Cells were washed with DPBS and trypsinized with 1 mL 0.05% Trypsin. 5 mL of DMEM/High Glucose (10% FBS, L-Glutamine, Sodium pyruvate) was added and cells were spun down at 1200 rpm for 3 min. Media was discarded and cells were resuspended in 5 mL of Live Cell Imaging Solution and again spun down at 1200 rpm for 3 min. The cells pellets obtained were resuspended in 3-5 mL of Live Cell Imaging Solution and divided into 500 μL aliquots. The aliquots were treated with either 0.2% DMSO carrier or 1 μM of PalmB/ML348 or 1 μM/5 μM of ML349 inhibitor. After 30 min of incubation at room temperature, 1 μL of 2.5 mM DPP-3 in DMSO was added to each aliquot for a final concentration of 5 μM, and the solutions were mixed. After 5 min incubation at room temperature, fluorescence signal in FITC channel was measured for 10000 cells (5000 for HeLa experiments) on a LSR-Fortessa 4-15 HTS (BD digital instrument, 488 nm laser with 530/30 nm filter for FITC; BD, Franklin Lakes, N.J., United States of America). For analyzing DPP2 in HEK293T cells, the aliquots were treated with either 0.2% DMSO carrier or 2 μM of PalmB, 5 or 20 μM of ML348/ML349 and then analyzed by the protocol as mentioned above. Data was analyzed by FlowJo software version 10.0.8. For comparison of A431 starved versus non-starved, parallel 10 cm dishes of A431 cells were plated in 10 mL of DMEM (high glucose, 10% FBS, 1% P/S), and grown for 36 h. The growth media was removed, and replaced by 10 mL of either DMEM (High glucose) with 10% FBS to maintain “growth” conditions, or DMEM (High glucose) without FBS respectively for “starvation” conditions, and incubated for 14 h. After trypsinization, both plates were treated with 5 mL of DMEM (high glucose) for spinning the cells down, and further processing and analysis were performed as described above by flow cytometry.

MCF-7 cells = experiment: Flow cytometry of DPP-3 in MCF-7 cells; type: cell-based, human; details: 5 μM DPP-3, 5 min, flow cytometry
Experimental: as §1

MDA-MB-231 cells = experiment: Flow cytometry of DPP-3 in MDA-MB-231 cells; type: cell-based, human; details: MDA-MB-231; 5 μM DPP-3, 5 min, flow cytometry
Experimental: as §1

A431 cells = experiment: DPP-3 in A431 cells, starvation and EGF stimulation (flow cytometry, microscopy); type: cell-based, human; details: serum starved A431; 1 ng/mL EGF for 15 min; 5 μM DPP-3
Experimental: as §1
Parallel 35 mm glass bottom dishes (D35-10-1.5-N; Cellvis, Mountain View, Calif., United States of America) of A431 cells (450,000) were plated in 2 mL of DMEM glutamax (high glucose, 10% FBS, 1% P/S), and grown for 36 h. The growth media was removed, and replaced by 1.5 mL of either DMEM (High glucose) with 10% FBS to maintain “growth” conditions, or DMEM (High glucose) without FBS respectively for “starvation” conditions, and incubated for 24 h. […] For data analysis, the average fluorescence intensity per image in each experimental condition was obtained by selecting ROIs in the brightfield image. For display, the data were normalized to the average fluorescence intensity of the control conditions. […]

Molecule	probe fluorescent signal in live cells (HEK293T cells)	water solubility [1]	enhancement in fluorescence signal (APT1; 5 μM probe, 50 nM APT1, 20 min) [fold]	selectivity for APT1 over APT2 (APT1; in vitro, purified APT1 vs APT2)	performance as substrate / reaction kinetics (APT1; purified APT1)	detection of endogenous depalmitoylase activities by probe (HeLa cells)	detection of endogenous depalmitoylase activities by probe (MCF-7 cells)	detection of endogenous depalmitoylase activities by probe (MDA-MB-231 cells)	effect on depalmitoylation activity measured by DPP-3 (A431 cells)
CCCCCCCC(=O)SC[C@@H](C(=O)N[C@@H](CCCCN)C(=O)OC)N(C)C(=O)Oc1ccc2c(c1)Oc1cc(N(C)C)ccc1C21OC(=O)c2ccccc21 (stereo partly drawn) [DPP-3]	functions in live cells	water soluble	400	modest selectivity for APT1 over APT2	striking reaction kinetics	can detect endogenous depalmitoylase activities	can detect endogenous depalmitoylase activities	can detect endogenous depalmitoylase activities	
EGF: epidermal growth factor, obtained from Gold Biotechnology (NSDSECPLSHDGYCLHDGVCMYIEALDKYACNCVVGYIGERCQYRDLKWWELR; UniProt P01133 971-1023, looked up)									inhibition of depalmitoylation activity
